The values that follow come from patent EP0269322B1, “Virginiamycin analogs” (Merck & Co., Inc., priority 1986, dated 1988).

In brackets after ≈: the same amount, converted by molar mass.

One experiment addresses T1, Gastrin Receptor (Cavia porcellus, UniProt H0VZC5).
T1 construct: from tissue; host or cells: guinea pig gastric mucosal glands
T1 sequence (H0VZC5 1-426): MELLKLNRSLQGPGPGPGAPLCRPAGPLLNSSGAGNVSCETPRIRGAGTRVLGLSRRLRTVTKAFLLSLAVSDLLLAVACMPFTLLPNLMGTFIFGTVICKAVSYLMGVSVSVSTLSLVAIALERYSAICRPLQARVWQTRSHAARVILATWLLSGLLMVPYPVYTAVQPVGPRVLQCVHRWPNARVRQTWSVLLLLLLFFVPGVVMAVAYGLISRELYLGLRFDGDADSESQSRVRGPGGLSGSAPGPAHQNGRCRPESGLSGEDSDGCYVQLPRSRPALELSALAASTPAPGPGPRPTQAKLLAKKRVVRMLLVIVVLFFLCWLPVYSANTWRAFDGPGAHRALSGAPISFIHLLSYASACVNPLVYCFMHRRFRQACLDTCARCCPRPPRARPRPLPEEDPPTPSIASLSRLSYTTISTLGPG
Kind of experiment: Gastrin receptor binding in guinea pig gastric glands (125I-gastrin). The following applies: ¹²⁵I-gastrin, 25°C for 30 minutes, read-out: IC₅₀. The protocol: Guinea pig gastric mucosal glands were prepared by the procedure of Praissman et al., J. Receptor Res. 3:647 (1983). Stomachs from male Hartley guinea pigs (250-400 g body weight) were washed thoroughly and minced with fine scissors in HEPES buffer consisting of the following: 130 mM NaCl, 12 mM NaHCO₃, 3 mM NaH₂PO₄, 3 mM […], 3 mM K₂HPO₄, 2 mM MgSO₄, 1 mM CaCl₂, 5 mM glucose and 4 mM L-glutamine, 25 mM HEPES at pH 7.4. The minced tissues were washed and incubated in a 37°C shaker bath for 40 minutes, with HEPES buffer containing 0.1% collagenase and 0.1% bovine serum albumin (BSA), and bubbled with 95% O₂ and 5% CO₂. The tissues were passed twice through a 5 ml glass syringe to liberate the gastric glands, and then filtered through 200 mesh nylon. The filtered glands were centrifuged at 270 ^x g for 5 minutes and washed twice by resuspension and centrifugation.
The washed guinea pig gastric glands were resuspended in 25 ml of HEPES buffer containing 0.25 mg/ml of bacitracin. For binding studies, 14.2 µl of 50% MeOH/H₂O (for total binding) or gastrin (1 µM final concentration, for nonspecific binding) or broth or test compound from Examples 2, 3 or 4 and 20 µl of ¹²⁵I-gastrin (New England Nuclear [NEN], 20,000 cpm 20 µl) were added to 220 µl of gastric glands in triplicate tubes which were aerated with 95% O₂ and 5% CO₂ and capped. The reaction mixtures, after incubation at 25°C for 30 minutes in a shaking water bath, were filtered under reduced pressure on glass GF/B filters (Whatman) and immediately washed with 3 ^x 4 ml of HEPES buffer containing 0.1% BSA fraction V. The radioactivity on the filters was measured using a Beckman 5500 gamma counter for ¹²⁵I-gastrin.

The next experiment concerns Micrococcus luteus. Kind of experiment: Antibiotic activity, filter paper disc agar diffusion MIC. In kind it is cell-based. To be noted: filter paper discs on agar, 15 hours at 28°C. The procedure:
The compounds of Formulae I, II, and IV and virginiamycin M₁ from Example 2 were assayed for antibiotic activity following a method described by Matsen and Barry, Manual of Clinical Microbiology, Lennette, Spaulding, and Truant, Eds., American Society for Microbiology, Washington, D.C., p. 418 (1974). The minimal inhibitory concentrations (MIC) were determined by applying serial dilutions of the compounds of Formulae I, III, and IV and virginiamycin M₁ to standard filter paper discs. The concent↑ation of the test compounds ↑anged f↑om […] to 3.0 µg per disc in 20 µl of diluent. The test organism, Micrococcus luteus, was innoculated on the surface of an agar based nutrient medium in petri plates and the discs placed on the surface of the medium. The nutrient media consisted of nutrient broth supplemented with 0.2% yeast extract and 1.5% agar. The innoculated plates were incubated for 15 hours at 28°C and the zones of inhibition determined. The MIC of each compound was determined by the method described in Matsen and Barry, supra.
A general note: A growth-free zone around the sample is the usual read-out of agar diffusion tests.

One may read the MIC as the lowest concentration that inhibits growth of the organism. Low values mean inhibition by little substance, high ones a need for much substance. As for `CC1=C\C=C\C(=O)Cc2nc(co2)C(=O)N2CCC=C2C(=O)O[C@H](C(C)C)[C@H](C)/C=C/C(=O)NC\C=C\1` [Compound III], the IC50 on Gastrin Receptor amounted to 90 nM. Besides, in the experiment with Micrococcus luteus, it took 250 µM (≈ 127 µg/mL) to inhibit growth (MIC). Turning to `CC1=C\C=C\[C@H](O)Cc2nc(co2)C(=O)N2CCC=C2C(=O)O[C@H](C(C)C)[C@H](C)/C=C/C(=O)NC\C=C\1` [Compound II], the IC50 at Gastrin Receptor stood at 13 nM. Consider `CC1=C\C=C\[C@@H](O)Cc2nc(co2)C(=O)N2CCC=C2C(=O)O[C@H](C(C)C)[C@H](C)/C=C/C(=O)NC\C=C\1` [Compound I], for which, at Gastrin Receptor, the IC50 came to 12 nM. This compound yielded an MIC in the experiment with Micrococcus luteus of 90 µM (≈ 45.9 µg/mL). For `CC1=C\CCC(=O)Cc2nc(co2)C(=O)N2CCC=C2C(=O)O[C@H](C(C)C)[C@H](C)/C=C/C(=O)NC\C=C\1` [IV], in that order: 360 nM and 15 µM (≈ 7.64 µg/mL).

`CC1=C\[C@@H](O)CC(=O)Cc2nc(co2)C(=O)N2CCC=C2C(=O)O[C@H](C(C)C)[C@H](C)/C=C/C(=O)NC\C=C\1` [Virginiamycin M₁, reference compound]: the IC50 on Gastrin Receptor worked out at 710 nM. In the experiment on Micrococcus luteus, 1.5 µM (≈ 0.788 µg/mL) was the least that counted as inhibitory (MIC).
